Here are results for three compounds from patent publication US4271073A, “6-Substituted-9-(2-hydroxyethyl)-1,2,3,4-tetrahydro carbazol-1-one” (Cassella Aktiengesellschaft, priority 1979, dated 1981).

Molecules are shown by their SMILES.

This assay in a line: Antagonism Tetrabenazine (antidepressive action). The assay is classed as in vivo. Conditions: species, route and unit inferred, read-out: ED50 Antagonism Dosage Tetrabenazine.
The term ED50 denotes the dose that gives a 50% effect, or the effect in half of the subjects. With `Cc1ccc2c(c1)c1c3n2CCNC3CCC1.Cl` (stereo not drawn) [8-methyl-2,3,3a,4,5,6-hexahydro-1H-pyrazino[3,2,1-jk]carbazole-hydrochloride, reference compound], the ED50 came to 14 mg/kg.
Then `Cc1ccc2c(c1)c1c3n2CCN=C3CCC1.Cl` [Example 1, 8-methyl-2,4,5,6-tetrahydro-1H-pyrazino[3,2,1-jk]carbazole-hydrochloride], with 4 mg/kg.
Then `COc1ccc2c(c1)c1c3n2CCN=C3CCC1.Cl` [Example 2, 8-methoxy-2,4,5,6-tetrahydro-1H-pyrazino[3,2,1-jk]carbazole-hydrochloride], with 2 mg/kg.
